Experimental data: ChEMBL document CHEMBL4828727, “Antibacterial and antitumoral properties of 1,2,3-triazolo fused triterpenes and their mechanism of inhibiting the proliferation of HL-60 cells” (Eur J Med Chem, 2021)
Values after ≈ are worked out from the molar mass of the structure shown. Active and inactive are the calls of the source. The calls are words filed in the database; no cut-off is given here.

Legend:
MV4-11 = experiment: cells; type: functional, cell-based; settings: Homo sapiens, MV4-11, 72 h
Description: Cytotoxicity against human MV4-11cells assessed as inhibition of cell viability measured after 72 hrs by real-time IncuCyte proliferation analysis

NCI-H460 = experiment: cells; type: functional, cell-based; settings: Homo sapiens, NCI-H460, 72 h
Description: Antiproliferative activity against human NCI-H460 cells assessed as inhibition of cell viability measured after 72 hrs by colorimetric MTS viability assay

Rec1 = experiment: cells; type: functional, cell-based; settings: Homo sapiens, Rec1, 72 h
Description: Cytotoxicity against human REC1 cells assessed as inhibition of cell viability measured after 72 hrs by real-time IncuCyte proliferation analysis

K562 = experiment: cells; type: functional, cell-based; settings: Homo sapiens, K562, 72 h
Description: Antiproliferative activity against human K562 cells assessed as inhibition of cell viability measured after 72 hrs by real-time IncuCyte proliferation analysis

Jurkat = experiment: cells; type: functional, cell-based; settings: Homo sapiens, 72 h
Description: Cytotoxicity against human Jurkat cells assessed as inhibition of cell viability measured after 72 hrs by real-time IncuCyte proliferation analysis

Escherichia coli = experiment: Antibacterial activity against Escherichia coli ATCC47076 assessed as growth inhibition after 20 hrs by broth microdilution method; type: functional
HCT-116 = experiment: Antiproliferative activity against human HCT-116 cells assessed as inhibition of cell viability measured after 72 hrs by colorimetric MTS viability assay; type: functional, cell-based; settings: HCT-116, 72 h
LN-229 = experiment: Antiproliferative activity against human LN-229 cells assessed as inhibition of cell viability measured after 72 hrs by colorimetric MTS viability assay; type: functional, cell-based; settings: LN-229, 72 h
CAPAN-1 = experiment: cells; type: functional, cell-based; settings: Homo sapiens, CAPAN-1, 72 h
Description: Antiproliferative activity against human CAPAN-1 cells assessed as inhibition of cell viability measured after 72 hrs by colorimetric MTS viability assay

[1] = Antiproliferative activity against human HAP1 cells assessed as inhibition of cell viability measured after 72 hrs by colorimetric MTS viability assay; type: functional, cell-based; settings: HAP1, 72 h
Z-138 = experiment: cells; type: functional, cell-based; settings: Homo sapiens, Z-138, 72 h
Description: Antiproliferative activity against human Z138 cells assessed as inhibition of cell viability measured after 72 hrs by real-time IncuCyte proliferation analysis

[2] = Antiproliferative activity against human DND41 cells assessed as inhibition of cell viability measured after 72 hrs by real-time IncuCyte proliferation analysis; type: functional, cell-based; settings: DND41, 72 h
Listeria innocua = experiment: Antibacterial activity against Listeria innocua LMG11387 assessed as growth inhibition after 20 hrs by broth microdilution method; type: functional
[3] = tested on: Salmonella enterica subsp. enterica; experiment: Antibacterial activity against Salmonella enterica subsp.enterica ATCC13076 assessed as growth inhibition after 20 hrs by broth microdilution method; type: functional
HL-60 = experiment: cells; type: functional, cell-based; settings: Homo sapiens, HL-60, 72 h
Description: Antiproliferative activity against human HL-60 cells assessed as inhibition of cell viability measured after 72 hrs by real-time IncuCyte proliferation analysis

Staphylococcus aureus = experiment: Antibacterial activity against Staphylococcus aureus ATCC65385 assessed as growth inhibition after 20 hrs by broth microdilution method; type: functional

SMILES	IC50 (MV4-11) [µM]	IC50 (NCI-H460) [µM]	IC50 (Rec1) [µM]	IC50 (K562) [µM]	IC50 (Jurkat) [µM]	MIC50 (Escherichia coli)	IC50 (HCT-116) [µM]	IC50 (LN-229) [µM]	IC50 (CAPAN-1) [µM]	IC50 [1] [µM]	IC50 (Z-138) [µM]	IC50 [2] [µM]	MIC50 (Listeria innocua) [µg/mL]	MIC50 [3]	IC50 (HL-60) [µM]	MIC50 (Staphylococcus aureus) [µg/mL]
CC1(C)CC[C@]2(C(=O)O)CC[C@]3(C)C(=CC[C@@H]4[C@@]5(C)Cc6nnn(Cc7ccc8[nH]ccc8c7)c6C(C)(C)[C@@H]5CC[C@]43C)[C@@H]2C1	12.8	8.3	2	86.1	3.7	41.6 µg/mL (≈ 68.3 µM)	12	37.7	4.1	3.3	10.3	12.1	193 (≈ 317 µM)	33 µg/mL (≈ 54.1 µM)	7	95.5 (≈ 157 µM)
C[C@H]1[C@H](C)CC[C@]2(C(=O)O)CC[C@]3(C)C(=CC[C@@H]4[C@@]5(C)Cc6nnn(CCc7c[nH]c8ccccc78)c6C(C)(C)[C@@H]5CC[C@]43C)[C@H]12	9.9	8.8	2.5	65.9	3.8	inactive	10.8	35.1	4.6	6.3	12.2	9	118 (≈ 189 µM)	inactive	5.5	132 (≈ 212 µM)
CC1(C)CC[C@]2(C(=O)O)CC[C@]3(C)C(=CC[C@@H]4[C@@]5(C)Cc6nnn(Cc7ccc8cc[nH]c8c7)c6C(C)(C)[C@@H]5CC[C@]43C)[C@@H]2C1	21.5	> 100	1.8	69.2	2.2	40.8 µg/mL (≈ 67.1 µM)	11	44.4	9.4	9.2	67.4	> 100	90 (≈ 148 µM)	29 µg/mL (≈ 47.6 µM)	3.3	199 (≈ 327 µM)
C[C@H]1[C@H](C)CC[C@]2(C(=O)O)CC[C@]3(C)C(=CC[C@@H]4[C@@]5(C)Cc6nnn(Cc7cccc8[nH]ccc78)c6C(C)(C)[C@@H]5CC[C@]43C)[C@H]12	14.1	9.2	2.8	> 100	4.1	409 µg/mL (≈ 672 µM)	15.6	63.5	3.6	8.8	10.1	10.1	51.3 (≈ 84.2 µM)	inactive	2.7	23.1 (≈ 38 µM)
C[C@H]1[C@H](C)CC[C@]2(C(=O)O)CC[C@]3(C)C(=CC[C@@H]4[C@@]5(C)Cc6nnn(Cc7ccc8[nH]ccc8c7)c6C(C)(C)[C@@H]5CC[C@]43C)[C@H]12	12.9	8.6	1.7	49.3	3.2	inactive	11.5	33.1	4.5	4.3	9.4	11.5	153 (≈ 252 µM)	inactive	1.5	37 (≈ 60.7 µM)
C[C@H]1[C@H](C)CC[C@]2(C(=O)O)CC[C@]3(C)C(=CC[C@@H]4[C@@]5(C)Cc6nnn(Cc7ccc8cc[nH]c8c7)c6C(C)(C)[C@@H]5CC[C@]43C)[C@H]12	12.6	7.9	4.9	53.7	5.2	inactive	11	32.2	2.6	2.3	10.3	13.9	74.4 (≈ 122 µM)	inactive	3.3	60.5 (≈ 99.3 µM)
